In the supplement of paper PMC10307832:

Legend:
Assay in all cases: relative viability (nuclei count vs DMSO), 5 days (fraction); higher = more cells survive
[1] = compound: O=C(NCCCNc1nc(Nc2cccc(NC(=O)N3CCCC3)c2)ncc1I)c1cccs1 [BX 795] + CC(=O)c1c(C)c2cnc(Nc3ccc(N4CCNCC4)cn3)nc2n(C2CCCC2)c1=O [Palbociclib] (partner 0.5 µM)
Outline: (§1)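 Nuclei were stained with Hoechst during a one-step fixation (final 0.05% Triton X-100, 1% formaldehyde, 1 ug/ml Hoechst) carried out 5 days after dosing, then counted on 4× images. The cells, lung cancer lines in 1536-well plates, had been dosed by pin tool the day after seeding with one drug alone or a fixed anchor-drug dose plus five library-drug doses (not always all listed) in √10 steps. Relative viability is the nuclei count in treated wells divided by that in vehicle wells, and each value is the median of duplicate plates.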

[2] = compound: O=C(NCCCNc1nc(Nc2cccc(NC(=O)N3CCCC3)c2)ncc1I)c1cccs1 [BX 795] + CC(C)C[C@H](NC(=O)[C@H](Cc1ccccc1)NC(=O)c1cnccn1)B(O)O [Bortezomib] (partner 0.002 µM)
Outline: as §1

[3] = compound: O=C(NCCCNc1nc(Nc2cccc(NC(=O)N3CCCC3)c2)ncc1I)c1cccs1 [BX 795] + Cc1nc(NC(=O)N2CCC[C@H]2C(N)=O)sc1-c1ccnc(C(C)(C)C(F)(F)F)c1 [Alpelisib] (partner 2 µM)
Outline: as §1

[4] = compound: O=C(NCCCNc1nc(Nc2cccc(NC(=O)N3CCCC3)c2)ncc1I)c1cccs1 [BX 795] + N=C(N)NC(=N)NCCc1ccccc1 [Phenformin] (partner 250 µM)
Outline: as §1

[5] = compound: O=C(NCCCNc1nc(Nc2cccc(NC(=O)N3CCCC3)c2)ncc1I)c1cccs1 [BX 795] + Nc1nc2[nH]cc(CCc3ccc(C(=O)N[C@@H](CCC(=O)O)C(=O)O)cc3)c2c(=O)[nH]1 [Pemetrexed] (partner 0.2 µM)
Outline: as §1

| Cell Line | relative viability ([1]; first compound 0.04 µM) | relative viability ([1]; first compound 0.1265 µM) | relative viability ([1]; first compound 0.4 µM) | relative viability ([1]; first compound 1.265 µM) | relative viability ([2]; first compound 0.04 µM) | relative viability ([2]; first compound 0.1265 µM) | relative viability ([2]; first compound 0.4 µM) | relative viability ([2]; first compound 1.265 µM) | relative viability ([3]; first compound 0.04 µM) | relative viability ([3]; first compound 0.1265 µM) | relative viability ([3]; first compound 0.4 µM) | relative viability ([3]; first compound 1.265 µM) | relative viability ([4]; first compound 0.04 µM) | relative viability ([4]; first compound 0.1265 µM) | relative viability ([4]; first compound 0.4 µM) | relative viability ([4]; first compound 1.265 µM) | relative viability ([5]; first compound 0.04 µM) | relative viability ([5]; first compound 0.1265 µM) | relative viability ([5]; first compound 0.4 µM) | relative viability ([5]; first compound 1.265 µM) |
| --- | --- | --- | --- | --- | --- | --- | --- | --- | --- | --- | --- | --- | --- | --- | --- | --- | --- | --- | --- | --- |
| LOU-NH91 | 0.5 | 0.478 | 0.558 | 0.5 | 0.528 | 0.498 | 0.562 | 0.507 | 0.695 | 0.666 | 0.621 | 0.741 | 0.861 | 0.713 | 0.658 | 0.697 | 0.321 | 0.38 | 0.294 | 0.377 |
| LU99A | 0.434 | 0.406 | 0.36 | 0.277 | 1.23 | 1.02 | 0.8 | 0.773 | 0.541 | 0.445 | 0.482 | 0.222 | 0.875 | 0.741 | 0.915 | 0.53 | 0.148 | 0.197 | 0.128 | 0.209 |
| LXF-289 | 0.671 | 0.595 | 0.638 | 0.579 | 0.981 | 1 | 0.977 | 0.967 | 1.06 | 1.04 | 1.11 | 0.693 | 0.464 | 0.529 | 0.582 | 0.467 | 0.898 | 0.832 | 0.894 | 0.831 |
| NCI-H23 | 0.457 | 0.43 | 0.567 | 0.464 | 1.05 | 1.31 | 0.987 | 1.26 | 0.659 | 0.737 | 0.743 | 0.526 | 0.803 | 0.825 | 0.794 | 0.782 | 0.559 | 0.61 | 0.418 | 0.502 |
| NCI-H322M | 0.486 | 0.468 | 0.571 | 0.587 | 1.39 | 1.26 | 1.44 | 1.39 | 0.889 | 0.846 | 0.886 | 1 | 0.858 | 0.796 | 0.951 | 0.659 | 0.591 | 0.606 | 0.603 | 0.672 |
| NCI-H441 | 0.22 | 0.204 | 0.243 | 0.184 | 0.393 | 0.541 | 0.747 | 0.577 | 0.779 | 0.748 | 1.42 | 0.552 | 0.986 | 0.831 | 0.983 | 0.531 | 0.255 | 0.272 | 0.281 | 0.267 |
| NCI-H460 | 0.163 | 0.156 | 0.0784 | 0.149 | 1.1 | 1.27 | 1.08 | 1.09 | 0.475 | 0.457 | 0.498 | 0.245 | 0.5 | 0.609 | 0.415 | 0.372 | 0.0535 | 0.0622 | 0.0597 | 0.0576 |
| NCI-H520 | 0.189 | 0.263 | 0.187 | 0.177 | 0.355 | 0.36 | 0.356 | 0.308 | 0.859 | 0.91 | 0.786 | 0.444 | 0.699 | 0.658 | 0.4 | 0.233 | 0.393 | 0.7 | 0.341 | 0.335 |
| NCI-H647 | 0.425 | 0.365 | 0.384 | 0.3 | 0.913 | 1.11 | 0.801 | 0.3 | 1.13 | 1.18 | 1.31 | 0.522 | 0.456 | 0.541 | 0.572 | 0.266 | 0.163 | 0.186 | 0.106 | 0.106 |
| NCI-H650 | 0.346 | 0.343 | 0.319 | 0.312 | 0.792 | 0.761 | 1.06 | 0.432 | 1.09 | 1.07 | 1.02 | 0.7 | 0.467 | 0.425 | 0.5 | 0.408 | 0.889 | 1.04 | 0.866 | 0.809 |
| NCI-H661 | 0.463 | 0.429 | 0.429 | 0.444 | 0.767 | 0.806 | 0.695 | 0.706 | 0.85 | 0.834 | 0.686 | 0.704 | 0.261 | 0.245 | 0.274 | 0.238 | 0.855 | 0.98 | 0.521 | 0.784 |
| NCI-H838 | 0.231 | 0.234 | 0.197 | 0.172 | 0.841 | 0.792 | 0.719 | 0.401 | 0.944 | 1.03 | 0.995 | 0.412 | 0.494 | 0.538 | 0.425 | 0.214 | 0.254 | 0.249 | 0.189 | 0.184 |
| NCI-H1355 | 0.418 | 0.346 | 0.388 | 0.393 | 1.23 | 1.22 | 1.31 | 1.22 | 0.833 | 0.808 | 0.914 | 0.781 | 0.491 | 0.455 | 0.465 | 0.357 | 0.798 | 0.977 | 1.09 | 1.01 |
| NCI-H1437 | 0.336 | 0.34 | 0.344 | 0.358 | 0.543 | 0.493 | 0.533 | 0.415 | 1.02 | 1.06 | 1.01 | 0.863 | 0.279 | 0.336 | 0.328 | 0.257 | 0.277 | 0.305 | 0.257 | 0.321 |
| NCI-H1651 | 0.566 | 0.534 | 0.538 | 0.541 | 0.925 | 0.961 | 1.04 | 0.971 | 0.933 | 1.02 | 0.881 | 0.782 | 0.322 | 0.356 | 0.312 | 0.24 | 0.602 | 0.571 | 0.409 | 0.596 |
